Tested on: Syk mutants (Arg 68, Glu 121, Glu 155)
Test: Binding of G4G11 with Syk mutants in the ADA method
Parameters: species or system murine
Details: 5 μM of C-13
Excerpt: On the basis of this information and the known 3D structure of the peptide complex formed by the SH2 domains of Syk and ITAM motifs^17, the inventors used computing approaches to locate a putative binding site for C-13. A candidate cavity comprising the residues Ser 9, Gln 43, Phe 51, Ile 66, Glu 67, Arg 68, Glu 69, Leu 70, Asn 71, Gly 72, Thr 73, Tyr 74, Ala 75, Glu 121 and Glu 155 of human Syk protein (see FIG. 8A, SEQ ID No. 1) and situated in the vicinity of the G4G11 epitope was identified (FIG. 1C). A structural analysis specified that the residues Ser 9, Gln 43, Phe 51, Arg 68, Glu 121 and Glu 155 could be involved in the binding of the ligand, and could be mutated without impairing the 3D structure of the protein. To validate the cavity in more detail, these six amino acids were mutated individually and the Syk mutants were subjected to the ADA test.
• 1) Chemical products and antibodies. […] The binding of G4G11 with Syk was assessed by adding the 9E10 monoclonal antibody conjugated with HRP detecting the amino acid sequence EQKLISEEDLN of human c-myc protein located at the C-terminal end of the scFv fragment. To generate Syk mutants, targeted mutagenesis was used on GST:Syk 6-242 protein and the binding of G4G11 with the mutants was assessed in the presence of 5 μM of C-13. • 3) Cells, culture conditions and functional tests. […]

Structure (SMILES): COC(=O)c1ccccc1-c1ccc(/C=C2/SC(=S)N(Cc3ccccc3)C2=O)o1 [Molecule C-13, methyl 2-{5-[(3-benzyl-4-oxo-2-thioxo-1,3-thiazolidin-5-ylidene)methyl]-2-furyl}benzoate]
- effect of mutation of Arg 68, Glu 121 and Glu 155 of Syk on inhibition of G4G11 binding: cancelled the inhibition
